Assay results reported in ChEMBL document CHEMBL4483862, “Open-source discovery of chemical leads for next-generation chemoprotective antimalarials” (2018).

Tested on: Plasmodium berghei
Experiment: Luciferase/luciferin-expressing antifolate-resistant parasites were used to infect a culture of HepG2 cells that were pre-incubated with compounds. Infected hepatocytes emit light due to the luciferase reaction. Assay results are presented as the percent inhibition of light emission compared to control. […]
Assay type: functional
Details: sporozoite; for IC90: read-out: LUCIFERASE INFECTION ASSAY - IC90
[1] = read-out: LUCIFERASE INFECTION ASSAY - IC50

Row | Compound | IC90 [µM] | also measured
1 | Cc1ccc(Cn2c(NCc3cccs3)nc3ccccc32)cc1 | > 9.9 | IC50 (PBLUC_HILL_SLOPE 9.45, PBLUC_R_SQUARED 0.348, read-out: LUCIFERASE INFECTION ASSAY - IC50): 8.16 µM
2 | O=C1Cn2c(c(-c3nc4ccccc4[nH]3)c(=O)c3ccccc32)N1 | 9.39 | IC50 (HEPG2TOX_HILL_SLOPE 13.7, HEPG2TOX_R_SQUARED 0.894, PBLUC_HILL_SLOPE 11.3, PBLUC_R_SQUARED 0.46, read-out: LUCIFERASE INFECTION ASSAY - IC50): 7.72 µM
3 | Cc1cccc(-c2cn3c(-c4cccc(C(=O)N5CCN(C)CC5)c4)cnc3cn2)c1C | 3 | IC50 (PBLUC_HILL_SLOPE 16.5, PBLUC_R_SQUARED 0.755, read-out: LUCIFERASE INFECTION ASSAY - IC50): 2.63 µM
4 | O=C(Nc1ncc(Cc2ccc(F)c(F)c2)s1)c1ccc2nc[nH]c2c1 | > 10 | IC50 (HEPG2TOX_HILL_SLOPE 13.7, HEPG2TOX_R_SQUARED 0.959, PBLUC_HILL_SLOPE 2.28, PBLUC_R_SQUARED 0.72, read-out: LUCIFERASE INFECTION ASSAY - IC50): 4.35 µM
5 | Fc1ccccc1-c1cnn2c(NCCc3ccccn3)ccnc12 | 0.681 | IC50 (FFLUC_HILL_SLOPE 1.74, FFLUC_R_SQUARED 0.803, PBLUC_HILL_SLOPE 0.998, PBLUC_R_SQUARED 0.825, read-out: LUCIFERASE INFECTION ASSAY - IC50): 0.0754 µM
6 | COc1ccc(-c2cc(C(=O)NNC(=O)CC(C)C)[nH]n2)cc1 | > 10 | IC50 [1]: > 10 µM
7 | COc1ccc(-c2cc(=O)n3nc(C)c(-c4ccc(F)cc4)c3[nH]2)cc1 | 3.24 | IC50 (HEPG2TOX_HILL_SLOPE 2.56, HEPG2TOX_R_SQUARED 0.662, PBLUC_HILL_SLOPE 58.3, PBLUC_R_SQUARED 0.0989, read-out: LUCIFERASE INFECTION ASSAY - IC50): 3.12 µM
8 | Cc1c(-c2ccccc2)sc2ncnc(NCC(=O)N3CCCC3)c12 | > 10 | IC50 (PBLUC_HILL_SLOPE 2.95, PBLUC_R_SQUARED 0.129, read-out: LUCIFERASE INFECTION ASSAY - IC50): 5.82 µM
9 | CC(C(=O)Nc1ccc(S(=O)(=O)N2CCCC2)cc1)N1CCC(CCc2ccc(O)cc2)CC1 (stereo not given) | > 10 | IC50 (FFLUC_HILL_SLOPE 12.4, FFLUC_R_SQUARED 0.343, PBLUC_HILL_SLOPE 0.669, PBLUC_R_SQUARED 0.407, read-out: LUCIFERASE INFECTION ASSAY - IC50): > 10 µM
10 | Cn1cc(-c2cnc3cnc(-c4ccccc4)cn23)cn1 | 5.95 | IC50 (PBLUC_HILL_SLOPE 2.38, PBLUC_R_SQUARED 0.622, read-out: LUCIFERASE INFECTION ASSAY - IC50): 2.36 µM
11 | CC(C)(C)C(=O)Nc1ccc(-c2csc(-n3nccc3C(F)(F)F)n2)cc1 | > 10 | IC50 (PBLUC_HILL_SLOPE 6.43, PBLUC_R_SQUARED 0.126, read-out: LUCIFERASE INFECTION ASSAY - IC50): 8.51 µM
12 | CC1c2ccsc2CCN1C(=S)NC(=O)c1cccs1 (stereo not given) | > 10.2 | IC50 (FFLUC_HILL_SLOPE 16.3, FFLUC_R_SQUARED 0.288, HEPG2TOX_HILL_SLOPE 6.88, HEPG2TOX_R_SQUARED 0.689, PBLUC_HILL_SLOPE 3.81, PBLUC_R_SQUARED 0.3, read-out: LUCIFERASE INFECTION ASSAY - IC50): 6.21 µM
13 | COc1ccc(Br)cc1-c1nc(CN2C(=O)NC(C)(c3ccccc3)C2=O)cs1 (stereo not given) | 5.61 | IC50 (HEPG2TOX_HILL_SLOPE 2.19, HEPG2TOX_R_SQUARED 0.876, PBLUC_HILL_SLOPE 2.71, PBLUC_R_SQUARED 0.259, read-out: LUCIFERASE INFECTION ASSAY - IC50): 2.49 µM
14 | CCOC(=O)c1sc(S(C)(=O)=O)c2c1CC(C)(C)CC2=O | > 9.99 | IC50 (HEPG2TOX_HILL_SLOPE 8.99, HEPG2TOX_R_SQUARED 0.709, PBLUC_HILL_SLOPE 5.08, PBLUC_R_SQUARED 0.0136, read-out: LUCIFERASE INFECTION ASSAY - IC50): > 9.99 µM
15 | COc1ccc(C(C)C)cc1-c1cnc(N)c(-c2ccc(F)c(Cl)c2)c1 | > 8.9 | IC50 (HEPG2TOX_HILL_SLOPE 11.3, HEPG2TOX_R_SQUARED 0.599, PBLUC_HILL_SLOPE 2.08, PBLUC_R_SQUARED 0.63, read-out: LUCIFERASE INFECTION ASSAY - IC50): 3.98 µM
16 | N#C/C(=N\Nc1ccc(C(F)(F)F)cc1)S(=O)(=O)c1cccs1 | 8.89 | IC50 (HEPG2TOX_HILL_SLOPE 12.1, HEPG2TOX_R_SQUARED 0.95, PBLUC_HILL_SLOPE 4.11, PBLUC_R_SQUARED 0.238, read-out: LUCIFERASE INFECTION ASSAY - IC50): 5.21 µM
17 | O=C(OCc1cccc2ccccc12)C1(c2ccccc2)CCN(S(=O)(=O)c2ccccc2)CC1 | > 10 | IC50 [1]: 4.79 µM
18 | Clc1ccc(-c2cnc3cnc(-c4ccccc4)cn23)cc1 | 4.82 | IC50 (PBLUC_HILL_SLOPE 10.1, PBLUC_R_SQUARED 0.74, read-out: LUCIFERASE INFECTION ASSAY - IC50): 3.88 µM
19 | C=S(=O)(NC(=O)CSc1nnc(C(F)(F)F)n1C)c1ccc(Cl)cc1 (stereo not given) | > 7.99 | IC50 (FFLUC_HILL_SLOPE 23.5, FFLUC_R_SQUARED 0.129, read-out: LUCIFERASE INFECTION ASSAY - IC50): > 7.99 µM
20 | Cc1nn(-c2ccccc2)c2sc(C(=O)N3c4ccccc4CC3C)cc12 (stereo not given) | > 10 | IC50 [1]: > 10 µM

Row | Compound | IC90 [µM] | also measured
21 | COc1ccc(C(N)=O)c(OCCC23CC4CC(CC(C4)C2)C3)c1 | > 10 | IC50 (PBLUC_HILL_SLOPE 2.6, PBLUC_R_SQUARED 0.547, read-out: LUCIFERASE INFECTION ASSAY - IC50): 6.07 µM
22 | CN(C)C(=O)C1CCCN1c1ccc(C(=O)c2ccccc2)cc1[N+](=O)[O-] (stereo not given) | > 10 | IC50 (HEPG2TOX_HILL_SLOPE 1.22, HEPG2TOX_R_SQUARED 0.897, PBLUC_HILL_SLOPE 2.78, PBLUC_R_SQUARED 0.507, read-out: LUCIFERASE INFECTION ASSAY - IC50): 6.2 µM
23 | NNC(=O)COc1ccccc1CSc1ccc(Cl)cc1 | > 10.2 | IC50 [1]: > 10.2 µM
24 | O=C(Nc1ncccc1O)c1ccc(-n2ccnc2)cc1 | 8.71 | IC50 (PBLUC_HILL_SLOPE 2.04, 2.50, 2.35, PBLUC_R_SQUARED 0.554, 0.491, 0.399, read-out: LUCIFERASE INFECTION ASSAY - IC50): 3.31 µM
25 | Cc1ccnc(NC(=O)C2CC(=O)N(c3ccc(C)c(C)c3)C2)c1 (stereo not given) | 4.04 | IC50 (HEPG2TOX_HILL_SLOPE 1.86, HEPG2TOX_R_SQUARED 0.878, PBLUC_HILL_SLOPE 11.1, PBLUC_R_SQUARED 0.462, read-out: LUCIFERASE INFECTION ASSAY - IC50): 3.31 µM
26 | OCCNCCNCc1c(OCc2ccccc2Cl)ccc2ccccc12 | > 8.57 | IC50 (PBLUC_HILL_SLOPE 12.5, PBLUC_R_SQUARED 0.654, read-out: LUCIFERASE INFECTION ASSAY - IC50): 7.4 µM
27 | COc1cc(-c2cnc3ccc(Cc4ccc(F)cc4)nn23)cc(OC)c1OC | > 10 | IC50 [1]: 6.26 µM
28 | O=C(Nc1cc(Cl)cc(Cl)c1)Nc1cccnc1N1CCC(C(F)(F)F)CC1 | 2.83 | IC50 (HEPG2TOX_HILL_SLOPE 11.8, HEPG2TOX_R_SQUARED 0.784, PBLUC_HILL_SLOPE 19.7, PBLUC_R_SQUARED 0.439, read-out: LUCIFERASE INFECTION ASSAY - IC50): 2.53 µM
29 | Cc1nnc(NC(=O)CN2C(=O)COc3ccc(Cl)cc32)s1 | > 9.74 | IC50 [1]: > 9.74 µM
30 | Cc1ccc([N+](=O)[O-])cc1S(=O)(=O)Nc1ccccc1C(=O)OCC(=O)NCCC1=CCCCC1 | > 10 | IC50 (HEPG2TOX_HILL_SLOPE 2.79, HEPG2TOX_R_SQUARED 0.956, PBLUC_HILL_SLOPE 19.8, PBLUC_R_SQUARED 0.561, read-out: LUCIFERASE INFECTION ASSAY - IC50): 9.09 µM
31 | Cc1[nH]c2ccc(C(=O)Nc3ccc(-n4cnnn4)cc3)cc2c1C | > 10 | IC50 [1]: > 10 µM
32 | CC(=O)c1c(C)[nH]c(C(=O)OCC(=O)Nc2ccccc2C(F)(F)F)c1C | > 10 | IC50 (HEPG2TOX_HILL_SLOPE 0.401, HEPG2TOX_R_SQUARED 0.713, read-out: LUCIFERASE INFECTION ASSAY - IC50): > 10 µM
33 | CSc1ncc2c(n1)CC(C)(C)C/C2=N\OC(=O)c1cccc(C(F)(F)F)c1 | > 8.06 | IC50 [1]: > 8.06 µM
34 | O=C(NC12CC3CC(CC(C3)C1)C2)c1ccc(=O)n(Cc2ccccc2)n1 | > 10 | IC50 (PBLUC_HILL_SLOPE 1.2, PBLUC_R_SQUARED 0.803, read-out: LUCIFERASE INFECTION ASSAY - IC50): 5.96 µM
35 | CC1CCc2nc(/C(C#N)=C/c3ccccc3OC(F)F)sc2C1 (stereo not given) | 3.92 | IC50 (FFLUC_HILL_SLOPE 11.1, FFLUC_R_SQUARED 0.825, PBLUC_HILL_SLOPE 3.87, PBLUC_R_SQUARED 0.911, read-out: LUCIFERASE INFECTION ASSAY - IC50): 2.22 µM
36 | O=C(Nc1cc(C(F)(F)F)cc(C(F)(F)F)c1)c1cnn(-c2ccccc2)c1C(F)(F)F | > 7.06 | IC50 [1]: > 7.06 µM
37 | CC(=O)c1cccc(-c2cnc3c(Nc4cccc(OC(F)(F)C(F)F)c4)nccn23)c1 | 6 | IC50 (HEPG2TOX_HILL_SLOPE 2.66, HEPG2TOX_R_SQUARED 0.947, PBLUC_HILL_SLOPE 1.76, PBLUC_R_SQUARED 0.616, read-out: LUCIFERASE INFECTION ASSAY - IC50): 1.72 µM
38 | O=C(O)CNC(=O)/C=C/c1ccccc1 [CINNAMOYLGLYCINE] | > 10 | IC50 [1]: > 10 µM
39 | CCC(C)NC(=O)c1c(NC(=O)c2cccc(C#N)c2)nc2ccc(C)cn12 (stereo not given) | 3.79 | IC50 (HEPG2TOX_HILL_SLOPE 2.26, HEPG2TOX_R_SQUARED 0.914, PBLUC_HILL_SLOPE 14.3, PBLUC_R_SQUARED 0.23, read-out: LUCIFERASE INFECTION ASSAY - IC50): 3.25 µM
40 | CCc1ccc(C(CNC(=O)c2ccc3c(=O)n(-c4ccccc4F)c(=S)[nH]c3c2)N(C)C)cc1 (stereo not given) | > 10 | IC50 (PBLUC_HILL_SLOPE 11.1, PBLUC_R_SQUARED 0.257, read-out: LUCIFERASE INFECTION ASSAY - IC50): 9.21 µM
